According to patent US11028077B2, “Crystalline pharmaceutical and methods of preparation and use thereof” (NOVARTIS PHARMACEUTICALS CORPORATION, priority 2008, dated 2021):
Values joined by “and” are separate entries in the source; they are usually repeats but may differ in a detail not shown here. Equal entries are not always repeated. Where two headings read alike, the source gives them in different places.

What was measured:
[1] = system: human mononuclear cells (PBMC) stimulated with staphylococcal enterotoxin B (SEB); test: cells; type: cell-based
[2] = system: Keratoconjunctivitis Sicca (KCS); test: Canine keratoconjunctivitis sicca (KCS) study; type: in vivo, dog
Excerpt: If dogs had been treated with topical CsA or tacrolimus in the previous six months, they were not enrolled. […] Animals were subjected to an ocular examination once during the initial visit and during five visits over sixteen weeks of the study (Weeks, 2, 4, 8, 12 and 16). The last OE was approximately four weeks after the last dose of the compound of Formula I and after one month of CsA treatment. The adnexa and anterior portions of both eyes were examined using an indirect opthalmoscope. The eyes were dilated with a mydriatic when applicable, to allow evaluation of the lens and fundus, including the retina. An evaluation using a modified McDonald-Shaddock scoring system was performed in conjunction with the slitlamp ocular examinations at each interval. Tears were measured using STT strips during the initial visit and each of the five follow-up visits on Weeks 2, 4, 8, 12 and 16. One strip of STT paper was used for each eye for each interval. […] The length, in mm, of wetting below the notch of the paper was recorded. Fluorescein and rose bengal staining was performed at the each of the initial and follow up examinations. Intraocular pressure measurements (IOPs) were performed using a Tono-Pet Vet® in conjunction with each of the OEs. Digital ocular images were taken before and after staining (with fluorescein and rose bengal) during each of the OEs. Conjunctival biopsies were taken at the initial (pretreatment) visit and the Week 12 visit. The second biopsy was taken more lateral (approx. 1 mm) to the initial biopsy. Following appropriate preparation a small conjunctival biopsy was taken from the ventral fornix of each eye.

[3] = system: cell attachment and SEB IL-2 release; test: cells; type: cell-based
rats [4] = test: Respiratory function in rats, single IV bolus, head-out plethysmograph; type: in vivo, rat; conditions: any dose
[5] = system: Chinese hamster ovary (CHO) cells; test: In vitro chromosomal aberration assay in CHO cells; type: cell-based; conditions: with and without metabolic activation; except single toxic dose 3500 μg/mL without activation
Excerpt: The biological relevance of this response is equivocal due to cytotoxicity.

CD-1 (ICR) BR mice = test: In vivo mouse bone marrow micronucleus assay; conditions: repeated IV administrations
rabbits = test: Single dose ocular tolerance in rabbits; type: in vivo, rabbit; conditions: rabbits (10%)
rats [6] = test: 13-week IV toxicity study in rats with 4-week recovery (toxicity and plasma exposure); type: in vivo, rat
[7] = Single dose ocular and IV ADME study with [14C]-compound in rats, quantitative whole body autoradiography; type: in vivo, rat; conditions: tissue distribution in pigmented vs albino rats
mini-pigs = test: Pilot mini-pig dermal study
[8] = Plasma PK after single topical ocular instillation (dogs and rabbits); conditions: baseline levels by about 4 hours
[9] = daily IV bolus 3 mg/kg, Week 13
[10] = daily IV bolus 10 mg/kg, Week 13
[11] = daily IV bolus 30 mg/kg, Week 13

Q: Which EC50 [1] does the source give for `CS(=O)(=O)c1cccc(C[C@H](NC(=O)c2c(Cl)cc3c(c2Cl)CCN(C(=O)c2ccc4ccoc4c2)C3)C(=O)O)c1` [compound of Formula I] here?
A: ≤ 0.15 µM

Q: What about the EC50 ([1]; read-out: EC50 Cytokine Release GM-CSF) of the same compound?
A: 0.545 µM

Q: And the EC50 ([1]; read-out: EC50 Cytokine Release IFNγ)?
A: 0.0016 µM

Q: What about the EC50 ([1]; read-out: EC50 Cytokine Release IL-1α) of the same compound?
A: 0.24 µM

Q: What about the EC50 ([1]; read-out: EC50 Cytokine Release IL-1β) of the same compound?
A: 0.36 µM

Q: And the EC50 ([1]; read-out: EC50 Cytokine Release IL-2)?
A: 0.0018 µM

Q: And the EC50 ([1]; read-out: EC50 Cytokine Release IL-3)?
A: 52.2 µM

Q: And the EC50 ([1]; read-out: EC50 Cytokine Release IL-4)?
A: 0.143 µM

Q: What about the EC50 ([1]; read-out: EC50 Cytokine Release IL-5) of the same compound?
A: 0.11 µM

Q: What about the EC50 ([1]; read-out: EC50 Cytokine Release IL-6) of the same compound?
A: 43.5 µM

Q: What about the EC50 ([1]; read-out: EC50 Cytokine Release IL-10) of the same compound?
A: 0.147 µM

Q: And the EC50 ([1]; read-out: EC50 Cytokine Release IL-12p40)?
A: > 1000 µM

Q: And the EC50 ([1]; read-out: EC50 Cytokine Release IL-13)?
A: 0.36 µM

Q: And the EC50 ([1]; read-out: EC50 Cytokine Release IP-10)?
A: 1.16 µM

Q: What about the EC50 ([1]; read-out: EC50 Cytokine Release MCP-1) of the same compound?
A: 0.005 µM

Q: What about the EC50 ([1]; read-out: EC50 Cytokine Release MIP-1α) of the same compound?
A: 0.02 µM

Q: What about the EC50 ([1]; read-out: EC50 Cytokine Release TNF-α) of the same compound?
A: 0.076 µM

Q: What about the “Schirmer Tear Test (OS), individual dogs” value ([2]; Week 1, left eye, 1% solution, 0.35 mg/eye TID) of the same compound?
A: 9 mm (2×) and 0 mm (3×) and 7 mm

Q: And the “Schirmer Tear Test (OD), individual dogs” value ([2]; Week 1, right eye, 1% solution, 0.35 mg/eye TID)?
A: 8 mm (2×) and 6 mm (2×) and 0 mm and 5 mm

Q: And the “Schirmer Tear Test (OS), individual dogs” value ([2]; Week 2, left eye, 1% solution TID)?
A: 4 mm and 0 mm (2×) and 14 mm and 3 mm and 8 mm

Q: What about the “Schirmer Tear Test (OD), individual dogs” value ([2]; Week 2, right eye, 1% solution TID) of the same compound?
A: 10 mm and 2 mm (2×) and 11 mm (3×)

Q: What about the “Schirmer Tear Test (OS), individual dogs” value ([2]; Week 4, left eye, 1% solution TID) of the same compound?
A: 14 mm (2×) and 0 mm (2×) and 7 mm and 5 mm

Q: And the “Schirmer Tear Test (OD), individual dogs” value ([2]; Week 4, right eye, 1% solution TID)?
A: 15 mm and 2 mm and 0 mm and 5 mm and 10 mm (2×)

Q: And the “Schirmer Tear Test (OS), individual dogs” value ([2]; Week 8, left eye, 1% solution TID)?
A: 8 mm (2×) and 0 mm and 2 mm and 17 mm and 6 mm

Q: And the “Schirmer Tear Test (OD), individual dogs” value ([2]; Week 8, right eye, 1% solution TID)?
A: 17 mm and 1 mm and 8 mm and 7 mm (2×) and 11 mm

Q: What about the “Schirmer Tear Test (OS), individual dogs” value ([2]; Week 12, left eye, 1% solution TID) of the same compound?
A: 8 mm (2×) and 3 mm and 7 mm and 15 mm and 4 mm

Q: And the “Schirmer Tear Test (OD), individual dogs” value ([2]; Week 12, right eye, 1% solution TID)?
A: 16 mm and 0 mm and 8 mm and 7 mm and 13 mm and 9 mm

Q: And the “Schirmer Tear Test (OS), individual dogs” value ([2]; Week 16, left eye, four weeks after last dose and after one month of CsA 0.2% ointment)?
A: 17 mm and 3 mm and 5 mm and 16 mm and 7 mm and 19 mm

Q: What about the “Schirmer Tear Test (OD), individual dogs” value ([2]; Week 16, right eye, four weeks after last dose and after one month of CsA 0.2% ointment) of the same compound?
A: 18 mm and 12 mm and 8 mm (3×) and 22** mm

Q: What about the “Maximum-Minimum Analysis, maximal change in STT, OS, individual dogs” value ([2]; Weeks 1-12, left eye) of the same compound?
A: 7 mm (2×) and 11 mm and 3 mm and 10 mm and 6 mm

Q: And the “Maximum-Minimum Analysis, maximal change in STT, OD, individual dogs” value ([2]; Weeks 1-12, right eye)?
A: 3 mm and 8 mm (3×) and −4 mm and 5 mm

Q: And the “average improvement in STT, all 12 eyes” value ([2]; during the treatment period (12 weeks))?
A: 4 mm

Q: And the “Histopathological evaluation of conjunctival biopsies taken before and after treatment” value ([2]; pretreatment vs Week 12)?
A: attenuation of lymphocyte accumulation

Q: What about the “mean change in Schirmer test score over pretreatment” value ([2]; week 12) of the same compound?
A: Significant improvement

Q: And the IC50 [3]?
A: 0.002 µM

Q: And the “respiratory function (tidal volume, respiration rate, minute volume)” value (rats [4])?
A: No adverse changes in respiratory function or adverse effects

Q: What about the “induction of structural chromosomal aberrations” value [5] of the same compound?
A: negative for inducing structural chromosomal aberrations

Q: And the “micronuclei in polychromatic erythrocytes” value (CD-1 (ICR) BR mice)?
A: negative

Q: What about the NOAEL (rabbits) of the same compound?
A: 3.5 mg/eye/3× per day

Q: What about the AUC0-n (rats [6]; daily IV bolus 3 mg/kg, Day 1) of the same compound?
A: 148.3 ng·h/mL

Q: And the Cmax (rats [6]; daily IV bolus 3 mg/kg, Day 1)?
A: 305.2 ng/mL

Q: What about the AUC0-n (rats [6]; [9]) of the same compound?
A: 241.4 ng·h/mL

Q: And the Cmax (rats [6]; [9])?
A: 377.5 ng/mL

Q: And the AUC0-n (rats [6]; daily IV bolus 10 mg/kg, Day 1)?
A: 535.6 ng·h/mL

Q: And the Cmax (rats [6]; daily IV bolus 10 mg/kg, Day 1)?
A: 1045.3 ng/mL

Q: And the AUC0-n (rats [6]; [10])?
A: 907.1 ng·h/mL

Q: What about the Cmax (rats [6]; [10]) of the same compound?
A: 1691.5 ng/mL

Q: What about the AUC0-n (rats [6]; daily IV bolus 30 mg/kg, Day 1) of the same compound?
A: 2345.5 ng·h/mL

Q: And the Cmax (rats [6]; daily IV bolus 30 mg/kg, Day 1)?
A: 5117.3 ng/mL

Q: What about the AUC0-n (rats [6]; [11]) of the same compound?
A: 7471.5 ng·h/mL

Q: What about the Cmax (rats [6]; [11]) of the same compound?
A: 16932.8 ng/mL

Q: And the binding to melanin [7]?
A: did not preferentially bind to melanin

Q: And the toxicity (mini-pigs; DMSO, gel, ointment, lotion at 1%, dermal TID for 7 days, 10 mg/cm^2)?
A: No toxicity

Q: And the plasma level (mini-pigs; all groups, below the LLOQ)?
A: < 0.5 ng/mL

Q: And the “time of maximum plasma concentration post-dose” value [8]?
A: about 0.25 hrs
